From paper PMC6014988, “Precision therapeutic targeting of human cancer cell motility” (Nature Communications, 2018)

How the values were obtained:
[1] = system: 200 different kinases; assay: Kinex kinase assay system; type: biochemical, human; settings: 1 and 10 μM; 10 μM interfered with readout
Source text: There were two initial false positives (for a false positive rate of 0.4%), that were subsequently found to be negative in a dedicated follow up analysis. Specific and important negative findings include MKK4, p38 MAPK (α, β, γ and δ […]
by competing for phospho-acceptor binding.
Kinase assay system #2. The Kinex™ kinase assay system (Kinexus Proteomics Company).
This platform uses recombinant human protein kinases expressed in an insect expression system, thus allowing an avenue for post-translational modification. Also, this platform measures inhibition of ATP binding. This platform putatively measured 200 different kinases, and we […]
tested KBU2046 at 1 and 10 μM. […] There were two […]
important technical issues. First, at 10 μM KBU2046 interfered with the colorimetric-based […]
However, while considering the above factors, this screen was informative for a number of […]
function by competing for ATP binding in the active site.
Kinase assay system #3. KinaseProfiler™ and PhosphataseProfiler™ assay platforms (Millipore). This platform is radiometric-based (considered gold standard). It measures competition with respect to ATP for kinases and substrate protein for phosphatases. Most proteins were expressed via an insect-based system, and it evaluates a panel of 284 kinases and 20 phosphatases. There were two initial false positives, for a false positive rate of 0.7%, but both […]

[2] = system: RAF1; assay: In vitro kinase assay of RAF1, HSP90β and CDC37; type: biochemical; settings: purified recombinant RAF1, HSP90β, CDC37
Method: MEK4/MKK4/MAP2K4 in vitro kinase assay was performed as described by us[45].

[3] = system: human prostate cells (PC3, PC3-M, 1532NPTX, 1542NPTX, 1532CPTX, 1542CPTX); assay: Cell invasion, panel of human prostate cells; type: cell-based
Method: Human prostate metastatic cells (PC3, PC3-M), and HPV-transformed normal (1532NPTX, 1542NPTX) and primary cancer (1532CPTX, 1542CPTX) cells, were treated with 10 µM genistein (G), KBU2046 (46), or vehicle (CO), and after 3 days, cell invasion was measured. Values are mean ± SEM of a single experiment in replicates of N = 4, with similar findings in multiple separate experiments (also N = 4). c Single-cell migration. Cell migration was measured after treatment for 3 days with 10 µM KBU2046 or vehicle (control). Values are mean ± SEM of a single experiment in replicates of N = 24, with similar findings in a separate experiment (also N = 24). *Denotes Student’s t-test P value <0.05, compared to controls. d Human cord blood hematopoietic stem cell colony formation assay. Values are the mean ± SD number of total, CFU-GM, CFU-GEMM, or BFU-E colonies at 14 days after treatment with KBU2046, from a single experiment in replicates of N = 2. e Induction of estrogen-responsive genes. Values are the mean ± SD of a single experiment, with similar results seen in a separate experiment, both in replicates of N = 2
Boyden chamber cell invasion assays were performed as previously described by us[30], using either denatured collagen (BD Biosciences) or type IV human collagen (BD Biosciences), with all experiments repeated, each in N = 4 replicates. […]

[4] = system: RAF1; assay: RAF1 protein expression, western blot; type: cell-based, human; settings: in cells
Method: Fig. 6 KBU2046-mediated changes in the signature of client proteins bound to the HSP90β/CDC37 heterocomplex mediate effects upon cell motility. a LUMIER assay. HEK293T cells were transfected with 1 of 420 different protein kinases, treated with 10 µM KBU2046 (N = 5 replicates) or vehicle control (N = 5) for 3 days, and LUMIER assays performed. The N = 17 kinases that gave significant findings (Student’s t-test <0.05) in the same direction in each of two separate experiments are depicted. […] All experiments were repeated at separate times at least once, with similar results
Western blots were performed as described by us[32]. All western blots were repeated at least once. Uncropped scans of the most important blots are depicted in Supplementary Fig. 19.

[5] = system: MMPs: 1,2,3, and 7-16; assay: Qiagen extracellular matrix/adhesion and metastasis/invasion expression arrays; type: cell-based, human; settings: PC3-M cells, three days
Source text: Response to Reviewers' comments:
We wish to thank the reviewers for their consideration of our manuscript. Their review and critiques have served to improve this manuscript. Below is a point-by-point response to reviewer critiques.
Changes in the manuscript and associated documents are underlined.
General comments: Much of the data is compelling and would be of interest to readers of Nature Communications, but some experimental procedures require a more thorough description and some of the data are too cursory to support the authors’ mechanistic conclusions...
Response. Thank you for your comprehensive and in formed review, we are encouraged that you felt that our data would be compelling to the readers of Nature Communications. In our revised manuscript as well as below, you will find that we have provided the requested clarifications, expanded descriptions and additional experiments requested.
1. Does the compound (herein abbreviated as ‘46’) have any impact on MMPs or other matrix-destroying activities? […] We did in fact suspect that this may be contributing to KBU2046’s anti-invasion efficacy, and as such we evaluated an entire panel of MMPs as part of two separate expression arrays. […]
2. […] Description of this experiment in both the figure legend and in Supplemental Methods is too cursory for the reader to understand how the treatment plan was selected. […]

O=C1c2ccccc2OCC1c1ccc(F)cc1 (racemic) [KBU2046, (±)-3(4-fluorophenyl)chroman-4-one]
inhibition of ATP binding [1]: completely negative
phosphorylation of RAF1 Ser338 [2]: decreased phosphorylation of RAF1’s Ser338 activation motif
cell invasion ([3]; 10 µM, 3 days): inhibits cell invasion with efficacy equal-to-or-greater-than that of genistein
effect upon invasion ([3]; after 3 days treatment of cells): 50%
RAF1 protein expression levels [4]: did not alter RAF1 protein expression levels
expression of MMPs and other array members [5]: no significant differences
